Experiment [1] addresses T1, IL23R (Homo sapiens, UniProt Q5VWK5).
T1 construct: Tag2 (identity not disclosed); purchased PerkinElmer 64BDPIL23PEH
T1 sequence (Q5VWK5 24-355 limits assumed): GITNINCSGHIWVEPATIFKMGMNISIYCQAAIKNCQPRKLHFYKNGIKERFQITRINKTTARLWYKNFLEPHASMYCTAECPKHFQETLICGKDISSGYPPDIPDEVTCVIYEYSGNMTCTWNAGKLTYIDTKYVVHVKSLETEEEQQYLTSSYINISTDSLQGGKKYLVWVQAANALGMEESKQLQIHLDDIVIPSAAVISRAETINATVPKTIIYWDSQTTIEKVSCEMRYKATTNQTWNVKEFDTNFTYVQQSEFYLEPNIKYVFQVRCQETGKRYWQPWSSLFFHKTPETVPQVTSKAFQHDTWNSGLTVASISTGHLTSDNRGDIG
As to the kind of experiment: Competing with IL23 for binding to IL23R (HTRF, IL23/IL23R binding assay kit). The following applies: 2 hours incubation at room temperature. The method, then:
(§1) The compounds of the present disclosure were screened in IL23/IL23R BINDING ASSAY KITS (PerkinElmer Cat #64BDPIL23PEH). The screening of the compounds of the present disclosure was carried out by using a multi-well plate (suitable for HTRF determination). Generally, 2 μl of several compounds of the present disclosure and STANDARD SOLUTIONS in KIT were first respectively added to the wells of the multi-well plate. 4 μl of Tag1-IL23, 4 μl of Tag2-IL23R, and 10 μL of pre-mixed Anti-Tag1 Eu Cryptate Antibody and Anti-Tag2 d2 reagent were necessarily added to all the wells. The multi-well plate was protected from light by an opaque cover membrane, and the opaque cover membrane was then removed
as §1, with “removed after 2 hours of incubation at room temperature. The signal value was read by an HTRF-compatible detection instrument to detect IC50 value.” for “removed”
(§2) The inhibition rate was calculated as follows: […]
By using log (inhibitor) vs. response—Variable slope (four parameters) in Graphpad, the data of HTRF experiment results were subjected to non-linear regression fitting to fit a curve and obtain the IC50 value.
In general terms: Time-resolved FRET reads energy transfer from a long-lived donor to a nearby acceptor.

In experiment [2] the test system is activation of STAT3 phosphorylation by hIL23 in DB cells. As to the kind of experiment: Blocking the activation of STAT3 phosphorylation by hIL23 in DB cells (p-STAT3 ELISA). The class given is cell-based, Human. The following applies: DB cells stimulated by rhIL-23 0.5 nM, half an hour; read-out: pStat3 IC50. The method, then: To determine the inhibitory activity of the compounds of the present disclosure on the activation of STAT3 phosphorylation by hIL23 in DB cells
The compounds produced above were added to DB (ATCC Cat #CRL-2289) cells to inhibit the signal transduction of rhIL-23 cytokine. The screening of compounds was carried out by a multi-well plate (suitable for ELISA assay). Generally, in the presence of some of the above compounds of the present disclosure, 6.25×10^6 cells/ml of DB cells were stimulated by rhIL-23 (0.5 nM, R&D SYSTEMS) in RPMI medium (Invitrogen) containing 10% of FBS, and after half an hour, lysis was carried out on ice using 50 μL of 2×lysis buffer (CST). The content of p-STAT3 in the lysate was determined by PathScan Phospho-Stat3 (Tyr705) Sandwich ELISA Kit (CST Cat #7300C), so as to calculate the activity of the compounds of the present disclosure in blocking rhIL23 signal transduction in DB cells.
as §2
By using log (inhibitor) vs. response—Variable slope (four parameters) in Graphpad, the data of ELISA experiment results were subjected to non-linear regression fitting to fit a curve and obtain the IC50 value.
For orientation: An ELISA detects its analyte on a solid surface through an enzyme-linked reagent.

Molecules are shown by their SMILES. Positions of bridges follow the written chain, without caps; N, C: chain ends. Non-standard residues stand in square brackets, D forms with d. Residues, ends and D or L forms follow the SMILES beside them. Trp(7-Me) = Cc1cccc2c(C[C@H](N)C(=O)O)c[nH]c12; 2Nal = N[C@@H](Cc1ccc2ccccc2c1)C(=O)O; Thp(SO2) = NC1(C(=O)O)CCS(=O)(=O)CC1; AEF = NCCOc1ccc(C[C@H](N)C(=O)O)cc1; Ac6c(4-thia) = NC1(C(=O)O)CCSCC1; 3Pal = N[C@@H](Cc1cccnc1)C(=O)O; Pen = CC(C)(S)[C@H](N)C(=O)O; Sar = CNCC(=O)O

Usually IC50 stands for the point on the concentration scale where inhibition reaches its midpoint. In experiment [1], `CC(=O)NCCCC[C@@H]1NC(=O)[C@H](Cc2c[nH]c3c(C)cccc23)NC(=O)[C@H]([C@@H](C)O)NC(=O)[C@H](CC(N)=O)NC(=O)[C@@H](NC(C)=O)C(C)(C)SSC(C)(C)[C@@H](C(=O)N[C@@H](Cc2ccc(OCCN)cc2)C(=O)N[C@@H](Cc2ccc3ccccc3c2)C(=O)NC2(C(=O)N[C@@H](CCC(=O)O)C(=O)N[C@@H](CC(N)=O)C(=O)N[C@@H](Cc3ccncc3)C(=O)N(C)CC(N)=O)CCC(F)(F)CC2)NC1=O` [Example 1-14] returned an IC50 of 1.14 nM.
On the same count and under the same terms, the same measure for `CC(=O)NCCCC[C@@H]1NC(=O)[C@H](Cc2c[nH]c3c(C)cccc23)NC(=O)[C@H]([C@@H](C)O)NC(=O)[C@H](CC(N)=O)NC(=O)[C@@H](NC(C)=O)C(C)(C)SSC(C)(C)[C@@H](C(=O)N[C@@H](Cc2ccc(OCCN)cc2)C(=O)N[C@@H](Cc2ccc3ccccc3c2)C(=O)NC2(C(=O)N[C@@H](CCC(=O)O)C(=O)N[C@@H](CC(N)=O)C(=O)N[C@@H](Cc3cccnc3)C(=O)N(C)CCNC(=O)CCCCC[N+](C)(C)C)CCS(=O)(=O)CC2)NC1=O` [Example 4-19]: 1.18 nM.
In the case of `CCCCCCC(=O)NCCCCCCCC(=O)NCC[N+](C)(C)CCOCCOCCC(=O)NCCN(C)C(=O)[C@H](Cc1cccnc1)NC(=O)[C@H](CC(N)=O)NC(=O)[C@H](CCC(=O)O)NC(=O)C1(NC(=O)[C@H](Cc2ccc3ccccc3c2)NC(=O)[C@H](Cc2ccc(OCCN)cc2)NC(=O)[C@H]2NC(=O)[C@H](CCCCNC(C)=O)NC(=O)[C@H](Cc3c[nH]c4c(C)cccc34)NC(=O)[C@H]([C@@H](C)O)NC(=O)[C@H](CC(N)=O)NC(=O)[C@@H](NC(C)=O)C(C)(C)SSC2(C)C)CCOCC1` [Example 2], the IC50 in experiment [2] is 0.01 nM; in experiment [1], 0.23 nM.
In the case of `CC(=O)NCCCC[C@@H]1NC(=O)[C@H](Cc2c[nH]c3c(C)cccc23)NC(=O)[C@H]([C@@H](C)O)NC(=O)[C@H](CC(N)=O)NC(=O)[C@@H](NC(C)=O)C(C)(C)SSC(C)(C)[C@@H](C(=O)N[C@@H](Cc2ccc(OCCN)cc2)C(=O)N[C@@H](Cc2ccc3ccccc3c2)C(=O)NC2(C(=O)N[C@@H](CCC(=O)O)C(=O)N[C@@H](CC(N)=O)C(=O)N[C@@H](Cc3cccnc3)C(=O)N(C)CCNC(=O)CCCCC[N+](C)(C)C)CCSCC2)NC1=O` [Example 3-19], in experiment [1], the IC50 was 1.13 nM.
`CC(=O)NCCCC[C@@H]1NC(=O)[C@H](Cc2c[nH]c3c(C)cccc23)NC(=O)[C@H]([C@@H](C)O)NC(=O)[C@H](CC(N)=O)NC(=O)[C@@H](NC(C)=O)C(C)(C)SSC(C)(C)[C@@H](C(=O)N[C@@H](Cc2ccc(OCCN)cc2)C(=O)N[C@@H](Cc2ccc3ccccc3c2)C(=O)NC2(C(=O)N[C@@H](CCC(=O)O)C(=O)N[C@@H](CC(N)=O)C(=O)N[C@@H](Cc3cccnc3)C(=O)N(C)CC(N)=O)CCS(=O)(=O)CC2)NC1=O` [Example 4-14] (Ac-[Pen]NT[Trp(7-Me)]K(Ac)[Pen][AEF][2Nal][Thp(SO2)]EN[3Pal][Sar]-NH2; disulfide 1-6): the results for the IC50 in experiment [2] and in experiment [1] were 0.0016 nM and 1.11 nM, respectively.
In turn, `CC(=O)NCCCC[C@@H]1NC(=O)[C@H](Cc2c[nH]c3c(C)cccc23)NC(=O)[C@H]([C@@H](C)O)NC(=O)[C@H](CC(N)=O)NC(=O)[C@@H](NC(C)=O)C(C)(C)SSC(C)(C)[C@@H](C(=O)N[C@@H](Cc2ccc(OCCN)cc2)C(=O)N[C@@H](Cc2ccc3ccccc3c2)C(=O)NC2(C(=O)N[C@@H](CCC(=O)O)C(=O)N[C@@H](CC(N)=O)C(=O)N[C@@H](Cc3cccnc3)C(=O)N(C)CCNC(=O)CCCCC[N+](C)(C)C)CCOCC2)NC1=O` [Example 12] registered an IC50 in experiment [1] of 1.14 nM.
Still for that read-out and setting: in the case of `CC(=O)NCCCC[C@@H]1NC(=O)[C@H](Cc2c[nH]c3c(C)cccc23)NC(=O)[C@H]([C@@H](C)O)NC(=O)[C@H](CC(N)=O)NC(=O)[C@@H](NC(C)=O)C(C)(C)SSC(C)(C)[C@@H](C(=O)N[C@@H](Cc2ccc(OCCN)cc2)C(=O)N[C@@H](Cc2ccc3ccccc3c2)C(=O)NC2(C(=O)N[C@@H](CCC(=O)O)C(=O)N[C@@H](CC(N)=O)C(=O)N[C@@H](Cc3cccnc3)C(=O)N(C)CCNC(=O)COCCOCCNC(=O)COCCOCCNC(=O)CC[C@H](NC(=O)CCCCCCCCCCCCCCCCC(=O)O)C(=O)O)CCOCC2)NC1=O` [Example 6] it was 1.25 nM.
Regarding `CC(=O)NCCCC[C@@H]1NC(=O)[C@H](Cc2c[nH]c3c(C)cccc23)NC(=O)[C@H]([C@@H](C)O)NC(=O)[C@H](CC(N)=O)NC(=O)[C@@H](NC(C)=O)C(C)(C)SSC(C)(C)[C@@H](C(=O)N[C@@H](Cc2ccc(OCCN)cc2)C(=O)N[C@@H](Cc2ccc3ccccc3c2)C(=O)NC2(C(=O)N[C@@H](CCC(=O)O)C(=O)N[C@@H](CC(N)=O)C(=O)N[C@@H](Cc3cccnc3)C(=O)N(C)CCNC(=O)CCCCC[N+](C)(C)C)CCC(F)(F)CC2)NC1=O` [Example 1-19], in experiment [1], the concentration for half-maximal inhibition (IC50) was 1.35 nM.
On the same count and under the same terms, in the case of `CC(=O)NCCCC[C@@H]1NC(=O)[C@H](Cc2c[nH]c3c(C)cccc23)NC(=O)[C@H]([C@@H](C)O)NC(=O)[C@H](CC(N)=O)NC(=O)[C@@H](NC(C)=O)C(C)(C)SSC(C)(C)[C@@H](C(=O)N[C@@H](Cc2ccc(OCCN)cc2)C(=O)N[C@@H](Cc2ccc3ccccc3c2)C(=O)NC2(C(=O)N[C@@H](CCC(=O)O)C(=O)N[C@@H](CC(N)=O)C(=O)N[C@@H](Cc3cccnc3)C(=O)N(C)CCNC(=O)CCOCCOCC[N+](C)(C)C)CCOCC2)NC1=O` [Example 3] it was 1.23 nM.
On to `CC(=O)NCCCC[C@@H]1NC(=O)[C@H](Cc2c[nH]c3c(C)cccc23)NC(=O)[C@H]([C@@H](C)O)NC(=O)[C@H](CC(N)=O)NC(=O)[C@@H](NC(C)=O)C(C)(C)SSC(C)(C)[C@@H](C(=O)N[C@@H](Cc2ccc(OCCN)cc2)C(=O)N[C@@H](Cc2ccc3ccccc3c2)C(=O)NC2(C(=O)N[C@@H](CCC(=O)O)C(=O)N[C@@H](CC(N)=O)C(=O)N[C@@H](Cc3cccnc3)C(=O)N(C)CC(N)=O)CCSCC2)NC1=O` [Example 3-14] (Ac-[Pen]NT[Trp(7-Me)]K(Ac)[Pen][AEF][2Nal][Ac6c(4-thia)]EN[3Pal][Sar]-NH2; disulfide 1-6), for which the IC50 in experiment [2] came to 0.0014 nM; in experiment [1], 1.09 nM.
